Drawing on PubChem BioAssay AID743231 (The Scripps Research Institute Molecular Screening Center, 2013), this text covers IC50 for 25 compounds.

Each structure is given as a SMILES string. The source made the active and inactive calls. No cut-off is given here; in the data, nearly all actives have IC50 up to about 7.9 µM.

In the assay the target is Trace amine-associated receptor 1 (Homo sapiens) (UniProt Q96RJ0). As to the kind of experiment: TAAR1 desensitization potency of agonists, dose response, counter-screen for TAAR1 agonist project, cell-based, fluorescence, late stage (AID 743231). Conditions: hTAAR1 cells.
Trace amine-associated receptor 1 (Homo sapiens), sequence (Q96RJ0 whole entry, looked up): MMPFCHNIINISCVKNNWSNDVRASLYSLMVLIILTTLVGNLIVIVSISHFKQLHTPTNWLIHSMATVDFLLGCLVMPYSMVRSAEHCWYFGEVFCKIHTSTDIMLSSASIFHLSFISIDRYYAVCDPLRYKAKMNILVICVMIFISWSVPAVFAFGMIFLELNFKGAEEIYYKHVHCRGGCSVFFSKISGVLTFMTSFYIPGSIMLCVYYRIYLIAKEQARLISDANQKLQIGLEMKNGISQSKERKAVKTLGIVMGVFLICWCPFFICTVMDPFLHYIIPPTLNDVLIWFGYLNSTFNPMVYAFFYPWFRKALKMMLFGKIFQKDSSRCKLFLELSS
Regarding `CCOC(=O)C(NC(C)=O)(N1CCc2ccccc2C1)C(F)(F)F` (stereo not given), the IC50 is 639 nM.
Consider `Nc1nc(Nc2ccccc2)nc2ccccc12`, for which the IC50 was 642 nM.
On to `CCOC(=O)C(NC(=O)CC)(N1CCc2ccccc2C1)C(F)(F)F` (stereo not given), for which the 50% inhibitory concentration (IC50) was 611 nM.
To `Cc1ccc(NC(=O)CCN2CCc3ccccc3C2)cc1` belongs 8270 nM; to `O=C(Nc1ccccc1)Nc1ccncc1`, 2740 nM; to `c1ccc(CCn2nnnc2C(c2cccs2)N2CCN(Cc3ccc4c(c3)OCO4)CC2)cc1` (stereo not given), 1340 nM.
To `O=C(CCN1CCC(c2ccccc2)C1)c1cccs1` (stereo not given) belongs 835 nM; to `COc1cc(C(=O)CCN2CCC(c3ccccc3)C2)cc(OC)c1OC` (stereo not given), 1520 nM.
As to `O=C(Nc1cccc2ccccc12)N1CCc2ccccc2C1`, the IC50 is > 29900 nM (inactive).
`CC(=NCCc1ccccc1)C1CCOC1=O` (stereo not given): the IC50 is 2840 nM.
As to `OCCNc1nc(Nc2ccc(O)cc2)nc2ccccc12`, the IC50 was 1860 nM.
Regarding `O=C(CCN1CCc2ccccc2CC1)c1ccc2c(c1)OCCO2`, the 50% inhibitory concentration (IC50) is 1010 nM.
In the case of `CC1(C)CCCN(C(=O)c2coc(=O)c(Br)c2)C1` it was 2550 nM; in that of `O=C(Nc1cccnc1)Nc1cccc(F)c1`, 6520 nM; in that of `O=C(CCCCl)N1CCc2[nH]c3ccccc3c2C1`, 1090 nM.
To `Cc1cc(C)n(C(CC(=O)N2CCc3ccccc3C2)C(=O)O)n1` (stereo not given) belongs 1220 nM; to `Nc1nc(Nc2cccc(F)c2)nc2ccccc12`, 1280 nM.
In the case of `O=C(Nc1ccncc1)Nc1ccc(F)cc1` it was 2430 nM.
Consider `OCCNc1nc(Nc2cccc(O)c2)nc2ccccc12`, for which the IC50 was 244 nM.
In the case of `c1ccc2c(c1)CCN(c1nc3cc4c(cc3s1)OCO4)C2` it was 2250 nM; in that of `Cc1cc(N(C)C)nc(Nc2ccccc2)n1`, 210 nM; in that of `O=C(C(=O)N1CCc2ccccc2C1)c1cn(CC(=O)N2CCCCC2)c2ccccc12`, 2690 nM.
To `NC(N)=NN=Cc1c(Cl)cccc1Cl` belongs 770 nM.
In the case of `c1ccc2c3c([nH]c2c1)CCNC3`, the half-inhibitory concentration (IC50) was 1120 nM.
For the compound `O=C(CCN1CCC(c2ccccc2)C1)c1ccc2c(c1)OCCO2` (stereo not given), the IC50 was 856 nM.
